In patent US20220364141A1, “Tryptase Activity Measurement Substrate” (National University Corporation Tokyo University of …, priority 2019, published 2022):
The star is where a group is joined. AMC = Cc1cc(=O)oc2cc(N*)ccc12; Tos = Cc1ccc(S(=O)(=O)*)cc1

Legend:
[1] = tested on: human lung tryptase; experiment: Screening of tryptase substrates: responsiveness of fluorescent MCA substrates to tryptase; assay type: biochemical; settings: for Tryptase activity: relative value with the sensitivity of ^iBoc-Ala-Ala-Arg-MCA defined as 100, 100 μM substrate, 50 mM Tris-HCl pH 8.0, ex 365 nm / em 470 nm; for tryptase responsiveness compared with ^iBoc-Ala-Ala-Arg-MCA (in words): screening of Table 1
Procedure: In addition to reference to past documents as described above, ^iBoc-Y-X-Arg-MCA in which Gly, Ala, Abu, Val, Pro, Phe or hydrophilic Lys having distinctive bulkiness was introduced to positions P2 and P3 was synthesized as listed in Table 1 by a peptide library approach, and activity measurement was performed. Abu (2-aminobutyric acid) is a non-protein amino acid, but was added as an optimum peptide sequence search tool.
The activity measurement was performed by the following method.
(1) A stock of a substrate solution was provided as a 2.0 mM solution in DMSO. (2) The stock of the substrate solution was diluted 20-fold with 50 mM Tris-HCl (pH 8.0) to prepare a 100 μM solution. 100 μL thereof was added to a polypropylene microtube, further 2 μL of a commercially available tryptase solution (manufactured by Cappel Laboratories, Inc.) was added thereto, and the tube was lightly vortexed for mixing. Immediately thereafter, change in fluorescence intensity at 470 nm was measured at an excitation wavelength of 365 nm using an enzyme activity measurement apparatus (manufactured by Peptide Support Ltd., prototype).

[2] = tested on: Tryptase in Serum; experiment: Human serum enzyme activity with Suc-Ala-Ala-Arg-MCA-linked poly(L-lysine) substrate after addition of inhibitors; assay type: biochemical; settings: for Enzyme activity: relative value with serum + PBS(-) defined as 100, human serum preincubated 10 min with 2 μL of 10 μM nafamostat or 10 U/mL hirudin, substrate Suc-Ala-Ala-Arg-MCA-linked poly(L-lysine)
Procedure: Suc-Ala-Ala-Arg-MCA-linked poly(L-lysine) prepared in Example 2 was used to test whether to be able to specifically measure tryptase activity in serum.
(1) 20.0 mg of Suc-Ala-Ala-Arg-MCA-linked poly(L-lysine) was dissolved in 50 mL of 50 mM Tris-HCl (pH 8.0). (2) 2 μL of commercially available human serum (manufactured by BioWest) was mixed with 2 μL of PBS(−) (pH 7.4) (control) or 2 μL of 10 μM nafamostat (tryptase inhibitor, manufactured by Tokyo Chemical Industry Co., Ltd.) or 2 μL of 10 U/mL hirudin (thrombin inhibitor, manufactured by Sigma-Aldrich Co., LLC). After a lapse of 10 minutes at room temperature, each mixed solution was added to 100 μL of the solution prepared in the step (1). Immediately thereafter, enzyme activity was measured.

Row | Tryptase activity [1] | Molecule | further results
1 | 25 | Tos-Gly-Pro-Arg-{AMC} [reference compound] | –
2 | 80 | ^iBoc-Ala-Abu-Arg-MCA | –
3 | 62 | ^iBoc-Phe-Ala-Arg-MCA | –
4 | – | N=C(N)c1ccc2cc(OC(=O)c3ccc(N=C(N)N)cc3)ccc2c1 [nafamostat] | inhibition of enzyme activity in serum detected with the macromolecular substrate (in words) ([2]; human serum, Suc-Ala-Ala-Arg-MCA-linked poly(L-lysine) substrate): completely inhibited; Enzyme activity [2]: 0
5 | 0 | Cc1cc(=O)oc2cc(NC(=O)C(CCCNC(=N)N)NC(=O)OCC(C)C)ccc12 (stereo not drawn) [^iBoc-Arg-MCA] | –
6 | 109 | ^iBoc-Abu-Ala-Arg-MCA | tryptase responsiveness compared with ^iBoc-Ala-Ala-Arg-MCA (in words) [1]: higher tryptase responsiveness than that of ^iBoc-Ala-Ala-Arg-MCA
7 | 11 | ^iBoc-Phe-Ser-Arg-MCA | –
8 | – | hirudin | Enzyme activity [2]: 83
9 | 11 | ^iBoc-Ala-Lys-Arg-MCA | –
10 | 175 | ^iBoc-Lys-Pro-Arg-MCA | tryptase responsiveness compared with ^iBoc-Ala-Ala-Arg-MCA (in words) [1]: tryptase responsiveness slightly less than two times higher than that of ^iBoc-Ala-Ala-Arg-MCA
11 | 0 | ^iBoc-Gly-Gly-Arg-MCA | –
12 | 5 | ^iBoc-Phe-Gly-Arg-MCA | –
13 | 100 | ^iBoc-Ala-Ala-Arg-MCA | –
14 | 53 | ^iBoc-Val-Ala-Arg-MCA | –
15 | 167 | ^iBoc-Lys-Ala-Arg-MCA | tryptase responsiveness compared with ^iBoc-Ala-Ala-Arg-MCA (in words) [1]: higher tryptase responsiveness than that of ^iBoc-Ala-Ala-Arg-MCA
16 | 50 | ^iBoc-Ala-Val-Arg-MCA | –
17 | 20 | ^iBoc-Val-Pro-Arg-MCA | –
18 | 69 | ^iBoc-Abu-Abu-Arg-MCA | –
19 | 1 | ^iBoc-Ala-Phe-Arg-MCA | –
20 | 75 | ^iBoc-Lys-Gly-Arg-MCA | –
21 | 9 | ^iBoc-Gly-Pro-Arg-MCA | –
